# Measurements as given in ChEMBL document CHEMBL5579901, “Discovery of Novel [1,2,4]Triazolo[1,5-a]pyrimidine Derivatives as Novel Potent S-Phase Kinase-Associated Protein 2 (SKP2) Inhibitors for the Treatment of Cancer” (J Med Chem, 2024).
# Activity calls are given as the source filed them. The calls are words filed in the database; no cut-off is given here.
# Columns and labels:
# [1] = test system: PC-3; assay: Induction of cell cycle arrest in human PC-3 cells assessed as cells at S phase at 15 uM incubated for 36 hrs by PI staining based flow cytometry (reference value: 22.8%); type: functional
# [2] = test system: PC-3; assay: Inhibition of cell migration in human PC-3 cells incubated for 48 hrs by wound healing assay; type: functional, cell-based; settings: dose 2.5-7.5 µM
# [3] = test system: PC-3; assay: Induction of cell cycle arrest in human PC-3 cells assessed as cells at S phase at 15 uM incubated for 24 hrs by PI staining based flow cytometry (reference value: 22.9%); type: functional
# [4] = test system: PC-3; assay: Induction of cell cycle arrest in human PC-3 cells assessed as cells at G2/M phase at 15 uM incubated for 24 hrs by PI staining based flow cytometry (reference value: 21.4%); type: functional
# [5] = molecular target: S-phase kinase-associated protein 2 (Homo sapiens) (UniProt Q13309); assay: Binding affinity to SKP2 in human MGC-803 cells assessed as increase in thermal stability at 57 to 68 degreeC incubated for 4 hrs by CETSA; type: cell-based
# [6] = MRT(infinity) in Sprague-Dawley rat at 1 mg/kg, iv measured upto 24 hrs by LC/MS-MS analysis; type: ADME, organism-based; settings: in vivo
# [7] = test system: PC-3; assay: Upregulation of p21 protein expression in human PC-3 cells at 5 to 15 uM incubated for 48 hrs by Western blotting analysis; type: functional, cell-based; settings: dose 5-15 µM
# [8] = Toxicity against NOD-SCID mouse assessed as change in liver morphology at 25 to 50 mg/kg, IG administered for 21 days by H and E staining based assay; type: organism-based; settings: in vivo, po, 504 h, dose 25-50 mg/kg, time 21 day
# [9] = test system: MGC-803; assay: Induction of cell cycle arrest in human MGC-803 cells assessed as cells at G2/M phase at 15 uM incubated for 24 hrs by PI staining based flow cytometry (reference value: 20.8%); type: functional
# [10] = test system: PC-3; assay: Inhibition of cell proliferation in human PC-3 cells incubated for 72 hrs by MTT assay; type: functional, cell-based; settings: PC-3, 72 h
# [11] = test system: MGC-803; assay: Inhibition of DNA synthesis in human MGC-803 cells incubated for 24 hrs by EdU staining based fluorescence microscopic analysis; type: functional, cell-based; settings: dose 2.5-7.5 µM
# [12] = test system: PC-3; assay: Induction of cell cycle arrest in human PC-3 cells assessed as cells at G0/G1 phase at 5 uM incubated for 36 hrs by PI staining based flow cytometry (reference value: 54.5%); type: functional
# [13] = test system: MGC-803; assay: Induction of cell cycle arrest in human MGC-803 cells assessed as cells at G0/G1 phase at 15 uM incubated for 48 hrs by PI staining based flow cytometry (reference value: 57.9%); type: functional
# [14] = test system: PC-3; assay: Inhibition of cell proliferation in human PC-3 cells incubated for 24 to 72 hrs by MTT assay; type: functional, cell-based; settings: dose 2-50 µM, time 24-72 hrs
# [15] = test system: MGC-803; assay: Induction of cell cycle arrest in human MGC-803 cells assessed as cells at G2/M phase at 15 uM incubated for 12 hrs by PI staining based flow cytometry (reference value: 20.8%); type: functional
# [16] = test system: MGC-803; assay: Induction of cell cycle arrest in human MGC-803 cells assessed as cells at G0/G1 phase at 15 uM incubated for 6 hrs by PI staining based flow cytometry (reference value: 57.9%); type: functional
# [17] = test system: MGC-803; assay: Antitumor activity against human MGC-803 cells xenografted in NOD-SCID mouse assessed as tumor growth inhibition at 25 mg/kg, IG administered for 21 days; type: functional; settings: MGC-803, po, 504 h, time 21 day, read-out: TGI
# [18] = test system: MGC-803; assay: Inhibition of cell invasion in human MGC-803 cells incubated for 48 hrs by […]; type: functional, cell-based; settings: dose 2.5-7.5 µM
# [19] = test system: PC-3; assay: Induction of cell cycle arrest in human PC-3 cells assessed as cells at G0/G1 phase at 15 uM incubated for 12 hrs by PI staining based flow cytometry (reference value: 55.1%); type: functional
# [20] = test system: PC-3; assay: Induction of cell cycle arrest in human PC-3 cells assessed as cells at S phase at 5 uM incubated for 36 hrs by PI staining based flow cytometry (reference value: 22.8%); type: functional
# [21] = test system: MGC-803; assay: Induction of cell cycle arrest in human MGC-803 cells assessed as cells at G2/M phase at 15 uM incubated for 48 hrs by PI staining based flow cytometry (reference value: 20.8%); type: functional
# [22] = test system: MGC-803; assay: Induction of cell cycle arrest in human MGC-803 cells assessed as cells at G2/M phase at 7.5 uM incubated for 36 hrs by PI staining based flow cytometry (reference value: 20.6%); type: functional
# [23] = molecular target: S-phase kinase-associated protein 2 (Homo sapiens) (UniProt Q13309); assay: Binding affinity to SKP2 in human PC-3 cells assessed as increase in thermal stability at 57 to 68 degreeC incubated for 4 hrs by CETSA; type: cell-based
# [24] = test system: MGC-803; assay: Inhibition of cell migration in human MGC-803 cells incubated for 48 hrs by wound healing assay; type: functional, cell-based; settings: dose 2.5-7.5 µM
# [25] = test system: PC-3; assay: Upregulation of p27 protein expression in human PC-3 cells at 5 to 15 uM incubated for 48 hrs by Western blotting analysis; type: functional, cell-based; settings: dose 5-15 µM
# [26] = test system: MGC-803; assay: Induction of cell cycle arrest in human MGC-803 cells assessed as cells at G2/M phase at 15 uM incubated for 6 hrs by PI staining based flow cytometry (reference value: 20.8%); type: functional
# [27] = test system: PC-3; assay: Induction of cell cycle arrest in human PC-3 cells assessed as cells at S phase at 15 uM incubated for 12 hrs by PI staining based flow cytometry (reference value: 22.9%); type: functional
# [28] = test system: PC-3; assay: Induction of cell cycle arrest in human PC-3 cells assessed as cells at G2/M phase at 15 uM incubated for 48 hrs by PI staining based flow cytometry (reference value: 21.4%); type: functional
# [29] = test system: PC-3; assay: Induction of cell cycle arrest in human PC-3 cells assessed as cells at S phase at 15 uM incubated for 6 hrs by PI staining based flow cytometry (reference value: 22.9%); type: functional
# [30] = test system: MGC-803; assay: Induction of cell cycle arrest in human MGC-803 cells assessed as cells at G0/G1 phase at 15 uM incubated for 24 hrs by PI staining based flow cytometry (reference value: 57.9%); type: functional
# [31] = Toxicity against NOD-SCID mouse assessed as change in heart morphology at 25 to 50 mg/kg, IG administered for 21 days by H and E staining based assay; type: organism-based; settings: in vivo, po, 504 h, dose 25-50 mg/kg, time 21 day
# [32] = test system: MGC-803; assay: Upregulation of p27 protein expression in human MGC-803 cells at 15 uM by Western blotting analysis; type: functional, cell-based; settings: time 6-48 hrs, TDE = time-dependent effect
# [33] = MRT(infinity) in Sprague-Dawley rat at 50 mg/kg, po measured upto 24 hrs by LC/MS-MS analysis; type: ADME, organism-based; settings: in vivo
# [34] = AUClast in Sprague-Dawley rat at 50 mg/kg, po measured upto 24 hrs by LC/MS-MS analysis; type: ADME, organism-based; settings: in vivo
# [35] = test system: PC-3; assay: Induction of cell cycle arrest in human PC-3 cells assessed as cells at G0/G1 phase at 15 uM incubated for 48 hrs by PI staining based flow cytometry (reference value: 55.1%); type: functional
# [36] = test system: PC-3; assay: Induction of cell cycle arrest in human PC-3 cells assessed as cells at G0/G1 phase at 15 uM incubated for 24 hrs by PI staining based flow cytometry (reference value: 55.1%); type: functional
# [37] = Toxicity against NOD-SCID mouse assessed as body weight loss at 25 to 50 mg/kg, IG administered for 21 days; type: organism-based; settings: in vivo, po, 504 h, dose 25-50 mg/kg, time 21 day
# [38] = test system: PC-3; assay: Inhibition of cell invasion in human PC-3 cells incubated for 48 hrs by […]; type: functional, cell-based; settings: dose 2.5-7.5 µM
# Chain of S-phase kinase-associated protein 2 (Homo sapiens) (Q13309 whole entry): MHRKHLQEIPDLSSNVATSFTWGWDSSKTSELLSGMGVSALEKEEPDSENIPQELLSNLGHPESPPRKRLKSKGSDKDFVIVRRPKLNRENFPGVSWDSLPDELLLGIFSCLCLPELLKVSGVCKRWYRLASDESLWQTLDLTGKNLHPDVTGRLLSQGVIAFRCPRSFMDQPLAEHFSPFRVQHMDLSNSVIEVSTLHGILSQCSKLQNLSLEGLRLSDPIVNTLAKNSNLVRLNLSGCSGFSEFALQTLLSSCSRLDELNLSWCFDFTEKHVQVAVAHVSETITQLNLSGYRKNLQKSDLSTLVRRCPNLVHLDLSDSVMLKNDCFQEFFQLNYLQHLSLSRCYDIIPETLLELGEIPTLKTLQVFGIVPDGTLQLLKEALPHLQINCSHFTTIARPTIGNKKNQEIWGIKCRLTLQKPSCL
structure (smiles),measurement,setting,value
COc1ccc(-c2cc(C)nc3nc(SCc4ccc(Br)cc4)nn23)c(OC)c1,Activity,[1],44.3%
same,inhibition,[2],Dose-Dependent Effect
same,Activity,[3],38.6%
same,Activity,[4],21.1%
same,Activity,[5],Active
same,MRT,[6],6.28 h
same,Activity,[7],Active
same,Activity,[8],Non-Toxic
same,Activity,[9],16.1%
same,IC50,[10],11.7 µM
same,inhibition,[11],Dose-Dependent Effect
same,Activity,[12],46.9%
same,Activity,[13],40.9%
same,inhibition,[14],Dose-Dependent Effect
same,Activity,[15],21.6%
same,Activity,[16],49.7%
same,inhibition in vivo at 25 mg/kg,[17],50.9%
same,inhibition,[18],Dose-Dependent Effect
same,Activity,[19],48.3%
same,Activity,[20],28.1%
same,Activity,[21],20.1%
same,Activity,[22],18.7%
same,Activity,[23],Active
same,inhibition,[24],Dose-Dependent Effect
same,Activity,[25],Active
same,Activity,[26],21.9%
same,Activity,[27],32.6%
same,Activity,[28],22.5%
same,Activity,[29],26.7%
same,Activity,[30],40.4%
same,Activity,[31],Non-Toxic
same,Activity,[32],Tde
same,MRT inf,[33],10.2 h
same,AUC(0-t) at 24 h,[34],906 ng·h/mL
same,Activity,[35],36.9%
same,Activity,[36],39.3%
same,Activity,[37],Non-Toxic
same,inhibition,[38],Dose-Dependent Effect
